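Test compounds were applied to cells in 96-well plates for 48 hours at 5 doses. GI50 marks 50% less growth. TGI marks complete inhibition of growth.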
Assays:
Experiment in all cases: inhibition of tumour cell growth, NCI panel, 48 h
MDA-MB-435 = tested on: MDA-MB-435
SNB-19 CNS = tested on: SNB-19 CNS
MCF7 breast = tested on: MCF7 breast
K-562 leukemia = tested on: K-562 leukemia
UO-31 renal = tested on: UO-31 renal
BT-549 breast = tested on: BT-549 breast
HCC-2998 colon = tested on: HCC-2998 colon
HOP-62 NSCLC = tested on: HOP-62 NSCLC
SNB-75 CNS = tested on: SNB-75 CNS
HL-60(TB) leukemia = tested on: HL-60(TB) leukemia

Structure (SMILES)	GI50 (MDA-MB-435) [nM]	TGI (MDA-MB-435) [µM]	GI50 (SNB-19 CNS) [µM]	TGI (SNB-19 CNS) [µM]	GI50 (MCF7 breast) [nM]	TGI (MCF7 breast) [µM]	GI50 (K-562 leukemia) [nM]	TGI (K-562 leukemia) [µM]	GI50 (UO-31 renal) [nM]	TGI (UO-31 renal) [µM]	GI50 (BT-549 breast) [nM]	TGI (BT-549 breast) [µM]	GI50 (HCC-2998 colon) [nM]	TGI (HCC-2998 colon) [µM]	GI50 (HOP-62 NSCLC) [nM]	TGI (HOP-62 NSCLC) [µM]	GI50 (SNB-75 CNS) [nM]	TGI (SNB-75 CNS) [µM]	GI50 (HL-60(TB) leukemia) [nM]	TGI (HL-60(TB) leukemia) [µM]
NC(CSC(c1ccccc1)(c1ccccc1)c1ccc2ccccc2c1)C(=O)O (stereo not drawn)	18	0.0363	0.066	17.3	32.1	21.9	46.1	> 100	3100	24.3	144	22.8	37.4	0.496	114	14.4	121	30.6	49.3	–
FC(F)(F)c1ccc(-c2cnc(Br)nc2NC2CCCCCC2)cc1	> 100000	> 100	> 100	> 100	19700	> 100	50400	> 100	33900	> 100	72900	> 100	> 100000	> 100	> 100000	> 100	> 100000	> 100	31400	> 100
C[C@H]1[C@@H](OCC(CO[C@H]2O[C@@H]3O[C@@]4(C)CC[C@H]5[C@H](C)CC[C@@H]([C@H]2C)[C@@]35OO4)=NOCC(=O)O)OC2O[C@@]3(C)CC[C@H]4[C@H](C)CC[C@@H]1[C@@]24OO3 (stereo partly drawn)	20	5.25	0.613	18.7	212	17.6	< 10	17.5	96.8	11.3	473	20.7	1280	20.8	229	21.7	698	15.4	< 10	13.3
Cn1cnc([N+](=O)[O-])c1Sc1ncnc2c1ncn2C1OC(CO)C(O)C1O (stereo not drawn)	3600	> 100	> 100	> 100	1790	> 100	3350	> 100	7100	> 100	> 100000	> 100	5020	> 100	2000	> 100	27700	> 100	22600	> 100
CCNCCNc1cc(-c2ccc(F)cc2)c(C#N)c2nc3ccccc3n12	1780	3.5	4.94	17.8	3310	13.5	2150	4.64	1820	3.75	4530	15.5	3830	14.2	18200	32.8	1810	4.39	2090	4.36
CC(C)C(N)(C(=O)O)c1ccccc1 (stereo not drawn)	–	> 100	–	> 100	–	> 100	–	> 100	–	> 100	–	> 100	–	> 100	–	> 100	–	> 100	–	> 100
COc1ccc(NC(=O)c2cc(OC)c(OC)c(OC)c2)cc1O	241	0.872	4.73	> 100	2580	> 100	489	> 100	18100	> 100	21700	> 100	14600	> 100	5360	> 100	1560	> 100	1080	21.6
Oc1c(CN2CCCC2)cc(COCc2ccccc2)c2cccnc12	4430	26.3	3.53	92.4	2820	13.3	2620	20.7	158	2.55	3520	18.1	3720	16.5	1650	9.5	2790	28.6	2520	8.95
Fc1ccc(-c2ncn(C3CCNCC3)c2-c2ccnc(Oc3cccc(F)c3)n2)cc1	6570	> 19.4	> 25	> 25	7380	> 20.4	6700	16.5	6770	> 25	> 24000	> 25	7140	> 25	> 21800	> 25	14800	> 25	> 16600	> 25
COc1ccc(/C=C\c2cc(OC)c(OC)c(OC)c2)c(NS(=O)(=O)c2ccc(C)cc2)c1O	20.8	0.0621	0.0549	> 100	33.3	> 39.2	40.9	> 100	335	> 65.8	35	3.04	90.4	10.9	1290	> 100	30.4	> 100	33.8	2.06
C#Cc1ccc(NC(=O)c2ccc(/C=C/C(=O)c3nccn3C)cc2)cc1	580	1.5	0.512	1.35	300	1.09	136	6.55	346	0.677	358	0.845	434	0.804	612	1.65	344	0.809	507	1.37
C[C@@H]1CC[C@@]2(OC1)O[C@H]1C[C@H]3[C@@H]4CC=C5C[C@@H](O[C@@H]6O[C@H](CO)[C@@H](O[C@@H]7O[C@@H](CO)[C@H](O)[C@H]7O)[C@H](O)[C@H]6O[C@@H]6O[C@@H](C)[C@H](O)[C@@H](O)[C@H]6O)CC[C@]5(C)[C@H]4CC[C@]3(C)[C@H]1[C@@H]2C	1290	2.58	1.21	2.45	1800	3.3	873	2.64	1280	2.55	1500	2.94	1710	3.1	1090	2.4	1180	2.46	1440	2.81
COc1ccc(/C=C(\C#N)c2cc3ccccc3n2C)cc1	153	0.403	0.492	> 100	343	> 100	178	> 100	924	> 100	627	> 100	865	5.98	497	> 100	198	5.5	262	–
O=C(/C=C/c1ccco1)Nc1ncc(Cc2ccc(F)cc2)s1	21.9	0.0558	0.112	> 100	61.2	> 100	38.5	> 100	194	> 100	368	> 25.3	224	> 100	145	> 100	54.7	0.706	53.3	0.185
O=Nc1c(O)ccc2ccccc12	1880	3.38	14.7	28.2	2030	4.71	3490	16.8	1100	4.79	12200	24.9	13400	27.9	12900	26.1	2520	14.5	2420	6.04
O=C1/C(=C/c2cccs2)CCC/C1=C\c1cccs1	> 100000	> 100	> 54.1	> 100	529	> 100	> 100000	> 100	> 42700	> 85.7	> 58300	> 100	> 100000	> 100	21900	49.2	16900	81.4	> 100000	> 100
CC[C@H](C)[C@H](NC(=O)C12C3C4C1C1C2C3C41NC(C)=O)C(=O)N(C)[C@H](C[C@@H](OC(C)=O)c1nc(C(=O)N[C@@H](Cc2ccccc2)C[C@H](C)C(=O)OC)cs1)C(C)C (stereo partly drawn)	42.7	0.625	0.578	> 14.3	50.3	> 14.3	118	> 14.3	8550	> 14.3	146	3.84	279	> 14.3	618	> 14.3	109	> 14.3	67.9	0.383
c1ccc(-c2nc(N3CCNCC3)c3nc(-c4ccccc4)oc3n2)cc1	1790	3.22	1.74	3.34	1700	3.58	1440	4.22	1530	2.91	1670	3.24	1810	3.49	1980	3.94	1260	2.52	1890	4.08
COc1ccc(/C=C2\N=C3SC=C(N)N3C2=O)cc1	808	6.06	3.32	17	459	6.29	1560	17.3	266	1.61	730	3.84	1650	3.28	2230	15.7	757	7.61	1120	4.6
COc1ccc2c3c(c(OCCCN(C)C)nc2c1)-c1ccc(Cl)cc1C3=O	5530	18.7	8.81	28.2	1270	13	2380	> 100	1510	11.1	14200	28.3	5190	21	7710	25.3	1550	18.3	18900	64.2
Cn1ccnc1C(=O)/C=C/c1ccc(C(=O)Nc2nc3ccccc3[nH]2)cc1	2870	19.8	9.75	> 25	900	> 25	829	> 25	2070	> 25	1730	> 25	10300	> 25	6420	> 25	1000	15.9	7870	> 25
COc1ccc(/C=C2\COc3ccc(-c4ccccc4)cc3C2=O)cc1O	2030	15.9	3.38	17.2	1580	13	3600	> 100	4160	16.1	1690	5.57	3310	10.3	5830	19.4	2710	8.77	2290	> 100
O=[As](O)(O)c1ccc(Cc2ccc([As](=O)(O)O)cc2)cc1	–	2.37	–	2.65	–	1.19	–	3.68	–	2.63	–	3.09	–	3.68	–	3.6	–	3.12	–	3.98
COc1cc(C2C(C#N)=C(N)OC3=C2C(=O)c2ccccc2C3=O)cc(OC)c1OC (stereo not drawn)	239	0.523	11.2	> 100	422	16.1	415	> 100	2790	21.3	1430	18.5	2520	18.7	961	17.7	293	25.1	2280	6.77

From PubChem BioAssay (NCI)
